“Also recorded” adds a separate entry of the source. Like-named read-outs stand apart in the source and are kept apart here.
Tests used:
[1] = test system: VSV-S (pseudotyped VSV carrying the S protein of Wuhan-Hu-1 SARS-CoV-2); experiment: microbe, parasite or virus in culture; format: cell-based
[2] = test system: VSV-S (pseudotyped VSV carrying the S protein of Wuhan-Hu-1 SARS-CoV-2); experiment: microbe, parasite or virus in culture; format: cell-based; details: read-out: IC50 (concentration at which virus infection is reduced by 50%), VSV-S in A549-ACE2-TMPRSS2 cells
[3] = in vitro; details: African green monkey
[4] = in vitro; details: human
[5] = biological target: SARS-CoV-2 RBD (Severe acute respiratory syndrome coronavirus 2, UniProt P0DTC2); format: binding
[6] = Vesicular stomatitis virus, Vero C1008, read-out: IC50 (concentration at which virus infection is reduced by 50%), VSV-S in Vero E6 cells
[7] = read-out: IC50 (concentration at which virus infection is reduced by 50%), VSV-S in Vero E6 cells

SMILES	IC50 [1, 6] [µM]	IC50 ([2]; Vesicular stomatitis virus) [µM]	CC50 [3] [µM]	CC50 [4] [µM]	IC50 [1, 7] [µM]	IC50 [2] [µM]	effect on thermofluor fluorescence profile / thermal stability of RBD (in words) [5]	primary HTS screening result (in words) [1]	antiviral activity in the VSV-S assay (in words) [1]
CCCCCCCCCCCC(=O)NCC(=O)NC(CCC(=O)NC(Cc1c(Sc2ccc([N+](=O)[O-])cc2)[nH]c2ccccc12)C(=O)O)(CCC(=O)NC(Cc1c(Sc2ccc([N+](=O)[O-])cc2)[nH]c2ccccc12)C(=O)O)CCC(=O)NC(Cc1c(Sc2ccc([N+](=O)[O-])cc2)[nH]c2ccccc12)C(=O)O (stereo not drawn) [Compound 59]	30.3 ± 5.3	44.4 ± 23.4	> 100	> 100	–	–	–	–	–
NCC(=O)NC(CCC(=O)NC(Cc1c(Sc2ccc(F)cc2)[nH]c2ccccc12)C(=O)O)(CCC(=O)NC(Cc1c(Sc2ccc(F)cc2)[nH]c2ccccc12)C(=O)O)CCC(=O)NC(Cc1c(Sc2ccc(F)cc2)[nH]c2ccccc12)C(=O)O (stereo not drawn) [Compound 40]	33 ± 1.3	46.9 ± 17.5	> 100	> 100	–	–	–	–	–
NCC(=O)NC(CCC(=O)NC(Cc1c(Sc2ccccc2[N+](=O)[O-])[nH]c2ccccc12)C(=O)O)(CCC(=O)NC(Cc1c(Sc2ccccc2[N+](=O)[O-])[nH]c2ccccc12)C(=O)O)CCC(=O)NC(Cc1c(Sc2ccccc2[N+](=O)[O-])[nH]c2ccccc12)C(=O)O (stereo not drawn) [Compound 36]	> 100	–	–	–	–	–	–	–	–
N#Cc1ccc(Sc2[nH]c3ccccc3c2CC(NC(=O)CCC(CCC(=O)NC(Cc2c(Sc3ccc(C#N)cc3)[nH]c3ccccc23)C(=O)O)(CCC(=O)NC(Cc2c(Sc3ccc(C#N)cc3)[nH]c3ccccc23)C(=O)O)NC(=O)CN)C(=O)O)cc1 (stereo not drawn) [Compound 39]	33.6 ± 7.2	34.9 ± 8.7	> 100	> 100	–	–	–	–	–
CC(=O)c1ccc(Sc2[nH]c3ccccc3c2CC(NC(=O)CCC(CCC(=O)NC(Cc2c(Sc3ccc(C(C)=O)cc3)[nH]c3ccccc23)C(=O)O)(CCC(=O)NC(Cc2c(Sc3ccc(C(C)=O)cc3)[nH]c3ccccc23)C(=O)O)NC(=O)CN)C(=O)O)cc1 (stereo not drawn) [Compound 41]	~2	~2	> 100	> 100	3 ± 1.9	2.3 ± 1.7	shift of the curve toward lower temperatures; also recorded: thermally destabilized the RBD	–	–
CCCCCCCCCC(=O)NCC(=O)NC(CCC(=O)NC(Cc1c(Sc2ccc([N+](=O)[O-])cc2)[nH]c2ccccc12)C(=O)O)(CCC(=O)NC(Cc1c(Sc2ccc([N+](=O)[O-])cc2)[nH]c2ccccc12)C(=O)O)CCC(=O)NC(Cc1c(Sc2ccc([N+](=O)[O-])cc2)[nH]c2ccccc12)C(=O)O (stereo not drawn) [Compound 58]	21 ± 8.7	9.8 ± 4.3	> 100	> 100	–	–	–	–	–
O=C(CCOCC(COCCC(=O)NC(Cc1c(Sc2ccc([N+](=O)[O-])cc2)[nH]c2ccccc12)C(=O)O)(COCCC(=O)NC(Cc1c(Sc2ccc([N+](=O)[O-])cc2)[nH]c2ccccc12)C(=O)O)COCCC(=O)NC(Cc1c(Sc2ccc([N+](=O)[O-])cc2)[nH]c2ccccc12)C(=O)O)NC(Cc1c(Sc2ccc([N+](=O)[O-])cc2)[nH]c2ccccc12)C(=O)O (stereo not drawn) [Compound 1]	21.4 ± 9.45	18.5 ± 3.5	> 100	> 100	21.4 ± 9.5	–	–	significant antiviral activity in the absence of cytotoxicity	–
NCC(=O)NC(CCC(=O)NC(Cc1c(Sc2cccc([N+](=O)[O-])c2)[nH]c2ccccc12)C(=O)O)(CCC(=O)NC(Cc1c(Sc2cccc([N+](=O)[O-])c2)[nH]c2ccccc12)C(=O)O)CCC(=O)NC(Cc1c(Sc2cccc([N+](=O)[O-])c2)[nH]c2ccccc12)C(=O)O (stereo not drawn) [Compound 37]	37.1 ± 15.9	8.6 ± 4.7	> 100	> 100	–	–	–	–	–
NCC(=O)NC(CCC(=O)NC(Cc1c(-c2ccc([N+](=O)[O-])cc2)[nH]c2ccccc12)C(=O)O)(CCC(=O)NC(Cc1c(-c2ccc([N+](=O)[O-])cc2)[nH]c2ccccc12)C(=O)O)CCC(=O)NC(Cc1c(-c2ccc([N+](=O)[O-])cc2)[nH]c2ccccc12)C(=O)O (stereo not drawn) [Compound 46]	> 50	–	–	–	–	–	–	–	antiviral activity is also lost
CCCCCC(=O)NCC(=O)NC(CCC(=O)NC(Cc1c(Sc2ccc([N+](=O)[O-])cc2)[nH]c2ccccc12)C(=O)O)(CCC(=O)NC(Cc1c(Sc2ccc([N+](=O)[O-])cc2)[nH]c2ccccc12)C(=O)O)CCC(=O)NC(Cc1c(Sc2ccc([N+](=O)[O-])cc2)[nH]c2ccccc12)C(=O)O (stereo not drawn) [Compound 56]	18.9 ± 6.8	8.3 ± 1.1	> 100	> 100	–	–	–	–	–
NCC(=O)NC(CCC(=O)NC(Cc1c(Sc2ccc(C(F)(F)F)cc2)[nH]c2ccccc12)C(=O)O)(CCC(=O)NC(Cc1c(Sc2ccc(C(F)(F)F)cc2)[nH]c2ccccc12)C(=O)O)CCC(=O)NC(Cc1c(Sc2ccc(C(F)(F)F)cc2)[nH]c2ccccc12)C(=O)O (stereo not drawn) [Compound 38]	27.6 ± 12.6	11.6 ± 4.8	> 100	> 100	–	–	shift of the curve toward lower temperatures	–	–
NCC(=O)NC(CCC(=O)NC(Cc1c(C(=O)c2ccc([N+](=O)[O-])cc2)[nH]c2ccccc12)C(=O)O)(CCC(=O)NC(Cc1c(C(=O)c2ccc([N+](=O)[O-])cc2)[nH]c2ccccc12)C(=O)O)CCC(=O)NC(Cc1c(C(=O)c2ccc([N+](=O)[O-])cc2)[nH]c2ccccc12)C(=O)O (stereo not drawn) [Compound 50]	> 50	–	–	–	–	–	–	–	antiviral activity is also lost
CCCCCCCC(=O)NCC(=O)NC(CCC(=O)NC(Cc1c(Sc2ccc([N+](=O)[O-])cc2)[nH]c2ccccc12)C(=O)O)(CCC(=O)NC(Cc1c(Sc2ccc([N+](=O)[O-])cc2)[nH]c2ccccc12)C(=O)O)CCC(=O)NC(Cc1c(Sc2ccc([N+](=O)[O-])cc2)[nH]c2ccccc12)C(=O)O (stereo not drawn) [Compound 57]	23.5 ± 3.8	11.1 ± 5	> 100	> 100	–	–	shift of the curve toward lower temperatures	–	–
O=C(CCC(CCC(=O)NC(Cc1c(Sc2ccc([N+](=O)[O-])cc2)[nH]c2ccccc12)C(=O)O)(CCC(=O)NC(Cc1c(Sc2ccc([N+](=O)[O-])cc2)[nH]c2ccccc12)C(=O)O)[N+](=O)[O-])NC(Cc1c(Sc2ccc([N+](=O)[O-])cc2)[nH]c2ccccc12)C(=O)O (stereo not drawn) [Compound 3]	32.9 ± 4.48	–	> 100	–	32.9 ± 4.5	–	–	effective	–
O=C(O)CCCCC(=O)NCC(=O)NC(CCC(=O)NC(Cc1c(Sc2ccc([N+](=O)[O-])cc2)[nH]c2ccccc12)C(=O)O)(CCC(=O)NC(Cc1c(Sc2ccc([N+](=O)[O-])cc2)[nH]c2ccccc12)C(=O)O)CCC(=O)NC(Cc1c(Sc2ccc([N+](=O)[O-])cc2)[nH]c2ccccc12)C(=O)O (stereo not drawn) [Compound 61]	~2	~2	> 100	> 100	2.1 ± 1.5	2.3 ± 0.8	shift of the curve toward lower temperatures	–	–
